From article PMC4965013, “Open Source Drug Discovery with the Malaria Box Compound Collection for Neglected Diseases and Beyond” (PLoS Pathogens, 2016) come the findings set out here.

Assay [1] has as its system bovine Babesia and equine Babesia and Theileria parasites. Nature of the assay: Babesia and Theileria fluorescence-based assay, all four species. The settings on record: for IC50: Babesia, range over compounds and species, read-out: IC50s for both bovine Babesia and equine Babesia and Theileria parasites. Format: cell-based, B. bovis, B. bigemina, T. equi, B. caballi.
A further assay addresses PfPMT (Plasmodium falciparum, UniProt Q8IDQ9). Kind of assay: PfPMT gene replacement yeast growth. Particulars: 100µM.
The test system of assay [2] is NCI60 human tumor cell lines. Kind of assay: NCI60 5-dose (dose-response) assay. Format: cell-based. The text has this: Columns IE-KK. NCI: Misra group (data presented first in this paper). NCI60 anti-tumor cell activity. Methods: […] These 60 cell lines, along with others, have been developed at NCI and have been maintained and distributed for research purposes by NCI for over 25 years. The experimental readout provides both inhibition of cell growth and cell kill. The screen was originally designed to prioritize agents for further evaluation. […] This is the same as for the 5-dose assay, described on http://dtp.cancer.gov/branches/btb/ivclsp.html. […] Testing beyond the initial screen: There were 133 compounds that passed threshold to proceed to 5-dose (dose-response) (data are available for the 133 compounds at the DTP public website (dtp.cancer.gov) by searching either the MMV number or NSC number). After examination of the 5-dose data, 10 compounds were selected for repeat testing based generally on potency, differential cell activity or activity on an individual cell lines or cell line panel. A summary of the data for the 10 compounds of interest is in the table below.

The test system of assay [3] is P. falciparum 3D7 trophozoites. Nature of the assay: Metabolomic fingerprint profiling LC-MS. Details: UDP-D-glucose / ADP-D-glucose: unit not given here. The format is cell-based, Plasmodium falciparum.
The subject of a further assay is P. falciparum. Nature of the assay: EC50 listed in S2 Table Metabolomics (used to set the concentration tested). Format: cell-based. Particulars: Plasmodium falciparum; EC50 used for Factor_XEC50 in metabolomics; read-out: EC50_nM.
[4] abbreviates: mean over cell lines of one experiment, listed as 766470/2.
Setting [5] is: metabolite level change after treatment.

Where “and” joins values, the source holds several entries; their conditions need not be identical. Equal entries are not always repeated.

Sequence of PfPMT (Q8IDQ9 whole entry): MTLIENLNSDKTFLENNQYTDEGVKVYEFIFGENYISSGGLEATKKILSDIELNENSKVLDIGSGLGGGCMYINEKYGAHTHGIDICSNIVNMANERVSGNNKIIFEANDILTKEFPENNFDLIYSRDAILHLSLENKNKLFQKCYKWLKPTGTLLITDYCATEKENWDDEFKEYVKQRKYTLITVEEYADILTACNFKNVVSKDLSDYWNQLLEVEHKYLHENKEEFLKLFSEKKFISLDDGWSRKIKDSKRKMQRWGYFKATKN

As for `Cc1cc(N2CCN(C3CCCC3)CC2)n2c(nc3ccccc32)c1C#N` [MMV006706], in assay [1], the “anti-Babesia and anti-Theileria hits, IC50 in words” value is “nanomolar IC50s”; the “mean selectivity indices (SI)” value is given as “greater than 230”; the IC50 was in the range of 43 to 750 nM.

Turning to `CN(C)c1ccc(N=Cc2ccc(N3CCOCC3)cc2)cc1` [MMV073843], in assay [1], the “anti-Babesia and anti-Theileria hits, IC50 in words” value is “nanomolar IC50s”; the “mean selectivity indices (SI)” value is recorded as “greater than 230”; the IC50 fell in the range of 43 to 750 nM.

For the compound `CCOc1ccc(CN2CCN(CC(O)COc3ccc(OCC(O)CN4CCN(Cc5ccc(OCC)cc5)CC4)cc3)CC2)cc1` (centres unmarked) [MMV007092], the “anti-Babesia and anti-Theileria hits, IC50 in words” value in assay [1] is on record as “nanomolar IC50s”.

Turning to `CC(C)CCNCC(O)Cn1c2ccccc2c2ccccc21` (centres unmarked) [MMV006787], in assay [1], the “anti-Babesia and anti-Theileria hits, IC50 in words” value is on record as “nanomolar IC50s”.

Take `CCCC(c1nnnn1C1CCCCC1)N1CCN(C(=O)c2ccco2)CC1` (centres unmarked) [MMV666093]: in assay [1], the “anti-Babesia and anti-Theileria hits, IC50 in words” value is recorded as “nanomolar IC50s”; the “mean selectivity indices (SI)” value is given as “greater than 230”; the IC50 is 43 to 750 nM.

As for `COc1ccc(-c2nc3cc(Cc4ccc5[nH]c(-c6ccc(OC)cc6)nc5c4)ccc3[nH]2)cc1` [MMV007384], on PfPMT, the “candidate inhibitors of PfPMT activity (yeast functional assay)” value is “candidate inhibitors of PfPMT activity”. Also, the “Notes (NCI60 5-dose activity pattern)” value in assay [2] is “Colon, differential, potent”. In addition, the “MGLI50 = Mean Growth Log I50” value in assay [2] (5-dose, mean over NCI60 panel) was -7.34. Also, in assay [2] (setting [4]), the “_MID Log10GI50” value was -7.42 Molar and -7.34 Molar; the “_MID Log10LC50” value was -5.38 Molar and -5.32 Molar; the “_MID Log10TGI” value was -6.22 Molar and -6.17 Molar. For the same compound, in assay [3] (S2 Table Metabolomics, metabolite Acetyllysine), the Acetyllysine is on record as -1.262. In addition, the N-acetyl-L-ornithine in assay [3] (S2 Table Metabolomics, metabolite N-acetyl-L-ornithine) is given as -1.162. In addition, the N-carbamoyl-L-aspartate in assay [3] (S2 Table Metabolomics, metabolite N-carbamoyl-L-aspartate) was -0.09766. Further, the NADPH in assay [3] (S2 Table Metabolomics, metabolite NADPH) was -0.9181. Besides, the dAMP in assay [3] (S2 Table Metabolomics, metabolite dAMP) turned out to be 0.6855. Besides, the dCMP in assay [3] (S2 Table Metabolomics, metabolite dCMP) was 0.07883. Further, the dTDP in assay [3] (S2 Table Metabolomics, metabolite dTDP) was 0.07329. The dTMP in assay [3] (S2 Table Metabolomics, metabolite dTMP) is reported as 0.1259. In assay [3] (S2 Table Metabolomics, metabolite dTTP), the dTTP is on record as -0.4561. The dihydroorotate in assay [3] (S2 Table Metabolomics, metabolite dihydroorotate) was 0.3461. The orotate in assay [3] (S2 Table Metabolomics, metabolite orotate) is listed as 0.3571. In assay [3] (S2 Table Metabolomics, peptide DLH), the DLH is reported as -1.971. Besides, in assay [3] (S2 Table Metabolomics, peptide DLS/SDL/SID), the DLS/SDL/SID is given as -1.761. In assay [3] (S2 Table Metabolomics, peptide PD), the PD is listed as -1.296. Also, the PEE in assay [3] (S2 Table Metabolomics, peptide PEE) is on record as -1.3661. Also, the PVNF in assay [3] (S2 Table Metabolomics, peptide PVNF) is -1.589. Further, in assay [3] (metabolite 3-phosphoglycerate, S2 Table Metabolomics), the 3-phosphoglycerate was -0.215. For the same compound, the ADP-D-glucose in assay [3] (metabolite ADP-D-glucose, S2 Table Metabolomics) is -0.07535. Also, the ATP in assay [3] (metabolite ATP, S2 Table Metabolomics) is on record as -0.4674. Moreover, the CDP in assay [3] (metabolite CDP, S2 Table Metabolomics, change in metabolite level after compound treatment) is -0.349. Also, the D-sedoheptulose-1/7-phosphate in assay [3] (metabolite D-sedoheptulose-1/7-phosphate, S2 Table Metabolomics, change in metabolite level after compound treatment) is -0.5757. Further, the FAD in assay [3] (metabolite FAD, S2 Table Metabolomics) is on record as -0.3245. The GMP in assay [3] (metabolite GMP, S2 Table Metabolomics, change in metabolite level after compound treatment) is reported as -0.4418. Further, the “NAD+” value in assay [3] (metabolite NAD+, S2 Table Metabolomics) is given as -0.0839. In addition, the “NADP+” value in assay [3] (metabolite NADP+, S2 Table Metabolomics) is on record as -0.1415. The “Octoluse Bisphosphate” value in assay [3] (metabolite Octoluse Bisphosphate, S2 Table Metabolomics, change in metabolite level after compound treatment) is recorded as -0.7079. The Pyroglutamic acid in assay [3] (metabolite Pyroglutamic acid, S2 Table Metabolomics) came to 1.1726. Also, in assay [3] (metabolite UDP-D-glucose, S2 Table Metabolomics), the UDP-D-glucose is on record as -0.1169. Moreover, the UDP-D-glucuronate in assay [3] (metabolite UDP-D-glucuronate, S2 Table Metabolomics) is on record as -0.3283. The UDP-N-acetyl-glucosamine in assay [3] (metabolite UDP-N-acetyl-glucosamine, S2 Table Metabolomics) is on record as -0.1799. In addition, in assay [3] (metabolite UDP, S2 Table Metabolomics, change in metabolite level after compound treatment), the UDP is listed as -0.2172. Moreover, in assay [3] (metabolite UMP, S2 Table Metabolomics, change in metabolite level after compound treatment), the UMP is -0.3886. The UTP in assay [3] (metabolite UTP, S2 Table Metabolomics, change in metabolite level after compound treatment) is on record as -0.61. The a-ketoglutarate in assay [3] (metabolite a-ketoglutarate, S2 Table Metabolomics) is 0.7257. In assay [3] (metabolite citrate/isocitrate, S2 Table Metabolomics, change in metabolite level after compound treatment), the citrate/isocitrate is 1.281. In addition, in assay [3] (metabolite cytidine, S2 Table Metabolomics), the cytidine worked out at 0.03237. Besides, the dATP in assay [3] (metabolite dATP, S2 Table Metabolomics) is recorded as -0.2668. Further, the dGMP/AMP in assay [3] (metabolite dGMP/AMP, S2 Table Metabolomics, change in metabolite level after compound treatment) amounted to 0.1319. In addition, the fumarate in assay [3] (metabolite fumarate, S2 Table Metabolomics, change in metabolite level after compound treatment) came to 0.03505. Besides, the glucose-1/6-phosphate in assay [3] (metabolite glucose-1/6-phosphate, S2 Table Metabolomics, change in metabolite level after compound treatment) is recorded as 0.02257. The glycerate in assay [3] (metabolite glycerate, S2 Table Metabolomics, change in metabolite level after compound treatment) is reported as 0.3902. Besides, in assay [3] (metabolite guanine, S2 Table Metabolomics, change in metabolite level after compound treatment), the guanine is 0.5342. Moreover, the guanosine in assay [3] (metabolite guanosine, S2 Table Metabolomics, change in metabolite level after compound treatment) was 0.3398. In addition, in assay [3] (metabolite hypoxanthine, S2 Table Metabolomics), the hypoxanthine turned out to be 1.128. Also, the indole in assay [3] (metabolite indole, S2 Table Metabolomics) was determined as 0.6274. In assay [3] (metabolite inosine, S2 Table Metabolomics, change in metabolite level after compound treatment), the inosine came to 0.7464. Also, in assay [3] (setting [5]), the 2_3-Diphosphoglyceric acid is -0.7853, the 4-phosphopantothenate turned out to be 0.02171, the 6-phospho-D-gluconate is reported as -0.4966 and the FMN is -0.1132. Moreover, in assay [3] (setting [5]), the IMP is -0.008592, the Pyrophosphate was -0.8081, the Sedoheptoluse bisphosphate is -0.4298 and the cyclic-AMP is reported as -0.3368. In assay [3] (setting [5]), the glutathione disulfide was -0.6284, the lactate stood at 0.4073 and the myo-inositol is given as -0.09775. Besides, the nicotinate in assay [3] (metabolite nicotinate, S2 Table Metabolomics) came to 1.038. In addition, in assay [3] (metabolite ornithine, S2 Table Metabolomics), the ornithine was 0.535. Further, the phosphoenolpyruvate in assay [3] (metabolite phosphoenolpyruvate, S2 Table Metabolomics) is given as 0.008692. Also, the pyruvate in assay [3] (metabolite pyruvate, S2 Table Metabolomics, change in metabolite level after compound treatment) is given as 0.9693. In assay [3] (metabolite ribose-phosphate, S2 Table Metabolomics), the ribose-phosphate is given as -0.5692. Besides, in assay [3] (metabolite sarcosine/alanine, S2 Table Metabolomics, change in metabolite level after compound treatment), the sarcosine/alanine was -0.2789. Besides, in assay [3] (metabolite sn-glycerol-3-phosphate, S2 Table Metabolomics), the sn-glycerol-3-phosphate is given as -0.4175. In addition, the succinate/methylmalonic acid in assay [3] (metabolite succinate/methylmalonic acid, S2 Table Metabolomics, change in metabolite level after compound treatment) is listed as -0.1567. Further, the uridine in assay [3] (metabolite uridine, S2 Table Metabolomics, change in metabolite level after compound treatment) is 0.8329. For the same compound, the xanthosine in assay [3] (metabolite xanthosine, S2 Table Metabolomics, change in metabolite level after compound treatment) stood at 0.2641. The EC50 with P. falciparum came to 176 nM.

Regarding `Cn1c(=O)n(C)c2cc(CNCCNc3ccnc4cc(Cl)ccc34)ccc21` [MMV665875], in assay [1], the “anti-Babesia and anti-Theileria hits, IC50 in words” value is on record as “nanomolar IC50s”; the “mean selectivity indices (SI)” value is listed as “greater than 230”; the IC50 fell in the range of 43 to 750 nM.

As to `CC(C)(C)CC(C)(C)NCC(O)COc1ccc(Cl)cc1Cl` (centres unmarked) [MMV396794], in assay [1], the “anti-Babesia and anti-Theileria hits, IC50 in words” value was “nanomolar IC50s”.
